The text below walks through data of the SangsterLogP compilation.

A short description of one data set: method code SF, from DOI: 10.1021/jm201475u, PMID: 22339047.
Settings: not given
The logP is a log measure of how a compound divides between an organic and an aqueous phase. Low values mean lower lipophilicity, high ones higher lipophilicity. Turning to `CC(C)n1cc(O)c(=O)c(F)c1`, the logP is -0.92.
The molecule `O=c1c(O)c(F)[nH]c(F)c1F` yielded a logP of 1.7.
Consider `CCn1ccc(=O)c(O)c1F`, for which the logP was -0.58.
`CCCn1ccc(=O)c(O)c1F` registered a logP of -0.08.
As for `Cn1cc(O)c(=O)c(F)c1`, the logP is -1.32.
On the same count and under the same terms, the figure for `O=c1cc[nH]c(C(O)C(F)(F)F)c1O` (configuration not stated) is 0.14; for `O=c1cc[nH]c(C(F)(F)F)c1O` it is 0.87; for `Cc1cn(C)c(F)c(O)c1=O` it is -0.65.
The molecule `O=c1cc(F)[nH]c(F)c1O` had a logP of 1.35.
Regarding `CC(C)n1ccc(=O)c(O)c1F`, the logP was -0.41.
Turning to `Cc1[nH]cc(F)c(=O)c1O`, the logP worked out at 0.
The same measure, in the same setting: the figure for `CCCn1cc(O)c(=O)c(F)c1` is -0.46; for `Cc1c(O)c(=O)c(F)cn1C` it is -0.8.
Turning to `Cn1ccc(=O)c(O)c1F`, the logP is -0.97.
`CCn1cc(O)c(=O)c(F)c1` showed a log partition coefficient (logP) of -0.89.
`CCCCn1ccc(=O)c(O)c1F`: the logP turned out to be 0.38.
For the molecule `Cn1ccc(=O)c(O)c1C(F)(F)F`, the logP was -0.45.

Still in this data set, the particulars now being: pH 7.4.
As a reminder, the logD is the decadic logarithm of the distribution of all forms, ionised or not, between an organic phase and buffer at a given pH. `O=c1cc[nH]c(F)c1O`: the logD was -0.21.
In the case of `Cc1[nH]c(F)c(O)c(=O)c1C`, the logD was 1.07.
`CCc1c(O)c(=O)ccn1CC`: the logD was found to be 0.23.
Consider `Cc1c[nH]c(F)c(O)c1=O`, for which the logD was found to be 0.5.
In the case of `Cc1cc(=O)c(O)c(F)[nH]1`, the logD came to 0.25.
